Reference: ChEMBL document CHEMBL1201862, “PubChem BioAssay data set” (2004)
Activity calls are given as the source filed them. How the calls were made is not given here.

Tests used:
[1] = target: Sphingosine 1-phosphate receptor 4 (Homo sapiens, UniProt O95977); assay: Fluorescence dose response cell-based high throughput screening assay for antagonists of the Sphingosine 1-Phosphate Receptor 4 (S1P4). [Related pubchem assays: 1524 (Confirmation in triplicates.), 1510 (Primary screen.)]; assay type: functional
[2] = general mammalian cell viability loss – inhibitor set, cherry-pick, set 2, cytotoxicity control for miR-122 modulator project, dose response (AID 720697); assay type: functional, cell-based
Exodeoxyribonuclease V = target: T1, Exodeoxyribonuclease V (Escherichia coli (strain K12), UniProt P04993+P07648+P08394); assay: RecBCD inhibition via phage-restricted bacterial growth – absorbance, V66 E. coli, mutant T4 phage, counter-screen for AddAB inhibitor project, dose response (AID 492957); assay type: functional, cell-based, Escherichia coli str. K-12 substr. MG1655
T1 sequence (P04993 whole entry): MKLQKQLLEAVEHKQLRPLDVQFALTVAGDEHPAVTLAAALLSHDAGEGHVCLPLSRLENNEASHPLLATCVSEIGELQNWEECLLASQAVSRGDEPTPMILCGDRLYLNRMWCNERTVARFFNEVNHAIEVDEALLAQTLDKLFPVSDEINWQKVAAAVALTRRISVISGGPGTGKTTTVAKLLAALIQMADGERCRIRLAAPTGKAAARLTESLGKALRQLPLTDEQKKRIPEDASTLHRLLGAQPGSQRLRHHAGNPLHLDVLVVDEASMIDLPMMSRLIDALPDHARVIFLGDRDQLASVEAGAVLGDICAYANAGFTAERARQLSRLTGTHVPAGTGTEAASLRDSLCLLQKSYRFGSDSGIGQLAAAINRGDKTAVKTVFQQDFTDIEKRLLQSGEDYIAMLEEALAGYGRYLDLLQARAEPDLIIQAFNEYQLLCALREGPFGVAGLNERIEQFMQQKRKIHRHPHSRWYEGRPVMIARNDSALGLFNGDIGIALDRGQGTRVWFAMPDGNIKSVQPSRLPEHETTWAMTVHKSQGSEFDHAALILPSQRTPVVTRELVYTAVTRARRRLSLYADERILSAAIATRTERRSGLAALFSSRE
T1 sequence (P07648 whole entry): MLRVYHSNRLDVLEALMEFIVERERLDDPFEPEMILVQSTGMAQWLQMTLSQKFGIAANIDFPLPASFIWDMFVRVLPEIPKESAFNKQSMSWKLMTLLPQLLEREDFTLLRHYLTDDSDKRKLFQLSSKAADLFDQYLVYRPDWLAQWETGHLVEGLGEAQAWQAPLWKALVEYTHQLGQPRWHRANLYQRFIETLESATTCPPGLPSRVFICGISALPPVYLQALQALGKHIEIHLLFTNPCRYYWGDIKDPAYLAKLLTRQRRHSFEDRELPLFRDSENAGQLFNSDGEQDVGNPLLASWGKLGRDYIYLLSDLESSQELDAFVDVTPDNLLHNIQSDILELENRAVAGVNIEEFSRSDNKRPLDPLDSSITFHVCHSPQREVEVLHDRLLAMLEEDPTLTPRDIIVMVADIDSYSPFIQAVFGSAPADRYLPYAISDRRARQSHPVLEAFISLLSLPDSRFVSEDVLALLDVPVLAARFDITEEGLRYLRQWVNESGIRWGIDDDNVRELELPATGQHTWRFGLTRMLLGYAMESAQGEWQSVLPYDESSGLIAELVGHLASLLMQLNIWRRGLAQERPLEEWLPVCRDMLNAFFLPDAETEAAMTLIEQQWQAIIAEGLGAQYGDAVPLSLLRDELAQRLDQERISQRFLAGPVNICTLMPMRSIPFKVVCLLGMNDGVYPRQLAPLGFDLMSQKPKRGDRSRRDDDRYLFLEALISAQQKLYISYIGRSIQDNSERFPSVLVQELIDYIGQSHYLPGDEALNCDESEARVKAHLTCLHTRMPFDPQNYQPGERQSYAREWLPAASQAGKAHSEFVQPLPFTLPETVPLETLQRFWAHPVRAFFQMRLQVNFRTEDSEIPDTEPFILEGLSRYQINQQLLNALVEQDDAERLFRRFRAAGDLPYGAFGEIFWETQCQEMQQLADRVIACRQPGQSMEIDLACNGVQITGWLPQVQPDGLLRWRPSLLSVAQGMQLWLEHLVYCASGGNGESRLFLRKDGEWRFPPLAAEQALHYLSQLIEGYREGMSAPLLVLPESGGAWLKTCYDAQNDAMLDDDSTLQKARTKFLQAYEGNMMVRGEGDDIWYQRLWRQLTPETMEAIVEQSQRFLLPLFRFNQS
T1 sequence (P08394 whole entry): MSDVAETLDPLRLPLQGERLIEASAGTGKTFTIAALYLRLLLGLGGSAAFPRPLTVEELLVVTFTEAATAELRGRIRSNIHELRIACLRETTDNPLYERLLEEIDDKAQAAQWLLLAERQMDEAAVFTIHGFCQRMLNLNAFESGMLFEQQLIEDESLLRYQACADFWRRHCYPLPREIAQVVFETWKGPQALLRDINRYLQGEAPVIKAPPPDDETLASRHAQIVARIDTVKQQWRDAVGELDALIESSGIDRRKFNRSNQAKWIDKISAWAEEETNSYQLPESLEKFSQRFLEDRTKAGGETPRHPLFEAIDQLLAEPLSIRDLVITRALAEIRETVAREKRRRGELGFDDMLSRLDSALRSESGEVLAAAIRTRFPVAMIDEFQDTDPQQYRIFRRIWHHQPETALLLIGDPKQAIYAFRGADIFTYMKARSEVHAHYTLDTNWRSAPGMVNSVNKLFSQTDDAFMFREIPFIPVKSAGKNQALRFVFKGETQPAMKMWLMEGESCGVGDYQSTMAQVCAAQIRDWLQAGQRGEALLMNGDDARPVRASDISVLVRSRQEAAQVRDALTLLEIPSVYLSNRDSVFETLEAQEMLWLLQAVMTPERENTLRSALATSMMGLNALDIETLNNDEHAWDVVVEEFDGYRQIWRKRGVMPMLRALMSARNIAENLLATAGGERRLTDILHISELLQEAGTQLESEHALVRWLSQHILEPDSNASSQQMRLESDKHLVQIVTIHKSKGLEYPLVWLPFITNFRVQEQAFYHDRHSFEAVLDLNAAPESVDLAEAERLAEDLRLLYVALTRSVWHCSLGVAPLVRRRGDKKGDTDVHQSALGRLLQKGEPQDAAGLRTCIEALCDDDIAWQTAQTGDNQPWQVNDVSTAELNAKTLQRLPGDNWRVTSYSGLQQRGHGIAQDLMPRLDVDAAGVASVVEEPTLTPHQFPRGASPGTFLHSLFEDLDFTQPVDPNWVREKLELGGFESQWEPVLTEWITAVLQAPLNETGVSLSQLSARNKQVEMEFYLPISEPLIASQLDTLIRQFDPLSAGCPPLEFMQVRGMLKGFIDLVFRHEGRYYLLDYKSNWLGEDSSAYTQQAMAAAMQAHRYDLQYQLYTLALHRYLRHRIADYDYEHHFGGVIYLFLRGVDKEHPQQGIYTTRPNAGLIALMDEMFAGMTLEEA

Sequence of Sphingosine 1-phosphate receptor 4 (O95977 whole entry): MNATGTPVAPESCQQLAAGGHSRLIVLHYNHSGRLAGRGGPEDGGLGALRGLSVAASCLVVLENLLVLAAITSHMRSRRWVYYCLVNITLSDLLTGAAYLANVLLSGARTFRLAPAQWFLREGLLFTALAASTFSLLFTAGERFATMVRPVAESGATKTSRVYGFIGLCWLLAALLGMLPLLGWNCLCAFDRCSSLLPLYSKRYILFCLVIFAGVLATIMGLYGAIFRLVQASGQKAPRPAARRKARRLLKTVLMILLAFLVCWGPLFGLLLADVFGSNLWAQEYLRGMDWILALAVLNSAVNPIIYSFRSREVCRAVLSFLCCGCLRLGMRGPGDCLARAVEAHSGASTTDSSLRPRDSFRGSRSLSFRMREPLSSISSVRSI

| SMILES | IC50 [1] | AC50 [2] | IC50 (Exodeoxyribonuclease V) |
| --- | --- | --- | --- |
| Cc1ccc(C(=O)OCn2ncc(Cl)c(Cl)c2=O)cc1 | 1.27 µM (active) | 4.05 µM (active) | – |
| CCCC(=O)NC(c1cccs1)c1cc(Cl)c2cccnc2c1O (stereo not drawn) | – | – | > 119 µM (inactive) |
